Test results taken from patent publication US20230313217A1, “CHLOROPLAST TARGETING PEPTIDES AND CONJUGATES AND COMPOSITIONS THEREOF” (The Regents of the University of California, priority 2021, published 2023).
Ends that are not written are not given here.

Columns and labels:
[1] = Hydrodynamic size by dynamic light scattering; type: physicochemical; settings: 10 mM TES buffer, pH 7
Protocol: The resulting PEI-SWCNT suspension was characterized by measuring the absorbance spectra on a UV-vis absorbance spectrophotometer (UV-2600, Shimadzu). The quality of the SWCNT suspension was determined by analyzing absorbance peaks at 632 nm. This measurement was performed with triplicates. The concentration of the PEI-SWCNT was determined spectrophotometrically using the absorption value at 632 nm and utilizing the equation (absorbance at 632 nm/extinction coefficient of 0.036)=mg L^−1. The final concentration obtained after purification ranged from 18 to 30 mg/L. The nanoparticle ζ potential was measured using a Zetasizer (Nano ZS, Malvern Instruments) in samples suspended in 10 mM TES buffer pH 7.0, with 0.1 mM NaCl. The hydrodynamic size was measured using Zetasizer (Nano ZS, Malvern Instruments) in samples suspended in a 10 mM TES buffer at pH 7.
Characterization of Nanomaterials. All nanomaterials were characterized by absorbance UV-vis spectroscopy (UV-2600 Shimadzu), hydrodynamic size (Nano S), and ζ potential (Nano ZS). The nanomaterial ζ potential and hydrodynamic diameter were measured in a 10 mM TES buffer (pH 7.0). The ζ potential measurements were performed in 0.1 mM NaCl to improve conductivity and analyzed by the Hückel approximation model.^111 CD fluorescence emission was collected using a fluorescence spectrometer (Horiba PTI QM-400). […]

[2] = test system: chloroplasts in Arabidopsis leaves; assay: Confocal colocalization of nanomaterials with chloroplasts after foliar spray; type: in vivo, Arabidopsis thaliana
Protocol: In Vivo Imaging of Chloroplast Targeted Nanomaterials. Confocal fluorescence microscopy imaging was used to determine the colocalization between chloroplasts in Arabidopsis leaves and both targeted and nontargeted β-CDs and CY3-ds(GT)15 (SEQ ID NO: 6) DNA coated SWCNT (FIG. 3A,B). Nanomaterials were foliar sprayed on whole plants in a formulation containing 0.1% Silwet (v/v) (Table 1). Control confocal images of leaves treated with only 10 mM TES buffer have no background autofluorescence in CD and CY3-ds(GT)15 (SEQ ID NO: 6) DNA emission channels (FIG. 12). The level of colocalization of fluorescent emission from nanocarriers with chloroplasts was determined by Manders' coefficient analysis (COLOC2, ImageJ) (FIG. 3C). The localization of targeted nanomaterials (TP-β-CD and TP-CY3-ds(GT)15-SWCNT) with chloroplasts in leaf mesophyll cells was higher compared to nontargeted materials lacking the targeting peptide (β-CD and CY3-ds(GT)15-SWCNT). […] Previously, we reported an in vivo increase in colocalization of chloroplasts with heavy-metal-based quantum dots functionalized with chloroplast targeting biorecognition peptides,^16 indicating the robustness of this approach for a variety of targeted nanomaterials. […]
Confocal Fluorescence Microscopy. […]

Substance: TP-β-CD: carbon dots with β-cyclodextrin molecular baskets covalently bonded to chloroplast targeting peptide MASSMLSSATMVGGC (SEQ ID NO:5) (also: covalently bonded to carbon dots with β-cyclodextrin, site not given here)
- hydrodynamic size (DLS) [1]: 27.8±5.8 nm
- colocalization rates of nanomaterials with chloroplasts ([2]; foliar spray, CD 20 mg/L, ds(GT)15-SWCNT 2 mg/L, Manders' coefficient, FIG. 3C): 70.0±9.46%
- delivery, % of chloroplasts in leaves ([2]; summary of Example 1): 70%
